Measured values reported in patent US11485751B2, “Apramycin derivatives” (WAYNE STATE UNIVERSITY, priority 2017, dated 2022).
Values after ≈ are worked out from the molar mass of the structure shown.

Tests used:
bacterial ribosomes = assay: in-vitro translation assay, bacterial ribosomes; assay type: biochemical
Text: (§1) IC50 values for bacterial, human chimeric, and rabbit reticulocyte ribosomes have been determined by in-vitro translation assays as described previously (Proc. Nat. Ac. Sci USA 2012, 109(27):10984-10989).
(§2) Minimal inhibitory concentrations (MICs, […]) against clinical isolates from Institute of Medical Microbiology, Univ. Zurich, and the IC50 values for bacterial, human mitochondrial and human cytosolic ribosomes are indicated.

[1] = system: human cytosolic ribosomes; assay: in-vitro translation assay, human cytosolic ribosomes; assay type: biochemical
Text: as §1, §2

[2] = system: K. pneum. AG269 AAC(3)-II AAC(6′)-I rmtB; assay: Activity against G1405-methylated 16S-rRNA, clinical isolate AG269; assay type: cell-based
Text: (§3) Minimal inhibitory concentrations (MIC) have been determined by broth microdilution assays (CLSI. Methods for Dilution Antimicrobial Susceptibility Tests for Bacteria That Grow Aerobically; Approved Standard—Tenth Edition. CLSI document M07-A10. Wayne, Pa.: Clinical and Laboratory Standards Institute; 2015.).

AG163 E. coli APH(3′)-I = assay: Antibacterial activity, clinical isolate AG163; assay type: cell-based
Text: as §3
(§4) Table 4 and 5 show the antibacterial activity of the compounds of the invention against bacterial reference strains (table 4) and against representative clinical isolates (table 5).

[3] = system: Engineered E. coli pH424 armA; assay: Activity against G1405-methylated 16S-rRNA, E. coli pH424 armA; assay type: cell-based
Text: as §3

AG173 E. coli AAC(3)-IV = assay: Antibacterial activity, clinical isolate AG173; assay type: cell-based
Text: as §3, §4

isolates carrying apmA = assay: MIC broth microdilution, apmA; assay type: cell-based; conditions: apmA resistance gene
Text: as §3, with “2015.). […]” for “2015.).”
(§5) Minimal inhibitory concentrations (μg/ml) against clinical isolates from Institute of Medical Microbiology, Univ. Zurich, and the IC50 values for bacterial, human mitochondrial and human cytosolic ribosomes are indicated.
(§6) The Minimal inhibitory concentrations (MICs, μg/ml) against clinical isolates from Institute of Medical Microbiology, Univ Zurich, and the IC50 values for bacterial, human mitochondrial and human cytosolic ribosomes are indicated.

[4] = system: human mitochondrial ribosomes; assay: in-vitro translation assay, human mitochondrial (human chimeric) ribosomes; assay type: biochemical
Text: as §1, §2

[5] = system: AG220, Pseudomonas aeruginosa ATCC27853; assay: MIC reference strain AG220; assay type: cell-based; conditions: Pseudomonas aeruginosa, ATCC27853, read-out: MIC AG220 P. aeruginosa
Text: as §3, §4
(§7) Legend to Tables: GEN, gentamicin; AMK, amikacin; PLZ, plazomicin; APR, apramycin; AG212, Escherichia coli ATCC25922; AG215, Klebsiella pneumonia; AG220, Pseudomonas aeruginosa ATCC27853; AG225, Acinetobacter baumannii pittii; AG290, Enterobacter cloacae; […], Mycobacterium smegmatis. MICs for AG192 have been determined in the presence of 0.5 μg/mL of ampicillin in the medium to mimic the synergistic effect of aminoglycoside and β-lactam antibiotics combination therapy in the treatment of Enterococcus infections in humans.

[6] = system: E. coli AG153 AAC(3)-II APH(3′)-II rmtB; assay: Activity against G1405-methylated 16S-rRNA, clinical isolate AG153; assay type: cell-based
Text: as §3

[7] = system: AG215, Klebsiella pneumonia; assay: MIC reference strain AG215; assay type: cell-based; conditions: Klebsiella pneumoniae, read-out: MIC AG215 K. pneumonia
Text: as §3, §4, §7

AG038 MRSA = assay: Antibacterial activity, clinical isolate AG038; assay type: cell-based
Text: as §3, §4

[8] = system: AG212, Escherichia coli ATCC25922; assay: MIC reference strain AG212; assay type: cell-based; conditions: Escherichia coli, ATCC25922, read-out: MIC AG212 E. coli
Text: as §3, §4, §7

WT clinical isolates = assay: MIC broth microdilution, WT; assay type: cell-based; conditions: read-out: MIC WT, clinical isolates, IMM Univ. Zurich; wild type
Text: as §3, §2, §5, §6

[9] = system: Engineered E. coli pH430 WT; assay: Activity, engineered E. coli pH430 WT; assay type: cell-based; conditions: wild type
Text: as §3

[10] = system: Enterob. AG302 AAC(3)-II AAC(6′)-I rmtC; assay: Activity against G1405-methylated 16S-rRNA, clinical isolate AG302; assay type: cell-based
Text: as §3

[11] = system: SZ380, Mycobacterium smegmatis; assay: MIC reference strain SZ380; assay type: cell-based; conditions: Mycolicibacterium smegmatis, read-out: MIC SZ380 M. smegmatis
Text: as §3, §4, §7

[12] = system: clinical isolates carrying AAC(3)-IV; assay: MIC broth microdilution, AAC(3)-IV; assay type: cell-based; conditions: read-out: MIC AAC(3)-IV
Text: as §3, §2, §5, §6

[13] = system: AG225, Acinetobacter baumannii pittii; assay: MIC reference strain AG225; assay type: cell-based; conditions: Acinetobacter baumannii, read-out: MIC AG225 A. baumannii
Text: as §3, §4, §7

ATCC19977 M. abcessus = assay: MIC reference strain ATCC19977; assay type: cell-based; conditions: read-out: MIC ATCC19977 M. abcessus
Text: as §3, §4

AG001 E. coli WT = assay: Antibacterial activity, clinical isolate AG001; assay type: cell-based
Text: as §3, §4

[14] = system: AG290, Enterobacter cloacae; assay: MIC reference strain AG290; assay type: cell-based; conditions: Enterobacter cloacae, read-out: MIC AG290 E. cloacae
Text: as §3, §4, §7

AG031 P. aer. APH(3′)-II = assay: Antibacterial activity, clinical isolate AG031; assay type: cell-based; design: unit not given here
Text: as §3, §4

[15] = system: A baum. AG227 APH(3′)-I armA; assay: Activity against G1405-methylated 16S-rRNA, clinical isolate AG227; assay type: cell-based
Text: as §3

Question: With CN[C@H]1C(O)C2O[C@H](O[C@@H]3C(N)C[C@@H](N)[C@@H](O)[C@H]3OCC(O)CN)C(N)C[C@@H]2O[C@@H]1O[C@H]1OC(CO)[C@@H](N)[C@H](O)C1O (some centres unmarked) [DC209] as the molecule, how does the IC50 (bacterial ribosomes) read?
Answer: The IC50 was 0.04 µM.

Question: What about the IC50 [1] of the same molecule?
Answer: The IC50 was 105 µM.

Question: What about the “Activity K. pneum. AG269 AAC(3)-II AAC(6′)-I rmtB” value [2] of the same molecule?
Answer: The value was 1.

Question: What about the “Antibacterial activity AG163 E. coli APH(3′)-I” value (AG163 E. coli APH(3′)-I) of the same molecule?
Answer: Its value is 4.

Question: What about the “Activity E. coli pH424 armA” value [3] of the same molecule?
Answer: Its value is 2.

Question: What about the “Antibacterial activity AG173 E. coli AAC(3)-IV” value (AG173 E. coli AAC(3)-IV) of the same molecule?
Answer: The value was 32.

Question: And the MIC (isolates carrying apmA)?
Answer: Its MIC is 64 to 128 µg/mL (≈ 104 to 209 µM).

Question: What about the IC50 [4] of the same molecule?
Answer: Its IC50 is 146 µM.

Question: And the MIC [5]?
Answer: Its MIC is 2 to 4 µg/mL.

Question: What about the “Activity E. coli AG153 AAC(3)-II APH(3′)-II rmtB” value [6] of the same molecule?
Answer: The value was 2-4.

Question: What about the MIC [7] of the same molecule?
Answer: The MIC was 1 µg/mL.

Question: And the “Antibacterial activity AG038 MRSA” value (AG038 MRSA)?
Answer: The value was 1-2.

Question: What about the MIC [8] of the same molecule?
Answer: Its MIC is 2 to 4 µg/mL.

Question: And the MIC (WT clinical isolates)?
Answer: The MIC was 2 to 4 µg/mL (≈ 3.26 to 6.53 µM).

Question: What about the “Activity E. coli pH430 WT” value [9] of the same molecule?
Answer: Its value is 2-4.

Question: What about the “Activity Enterob. AG302 AAC(3)-II AAC(6′)-I rmtC” value [10] of the same molecule?
Answer: The value was 2.

Question: And the MIC [11]?
Answer: The MIC was 0.125 µg/mL.

Question: And the MIC [12]?
Answer: Its MIC is 8 µg/mL (≈ 13.1 µM).

Question: And the MIC [13]?
Answer: The MIC was 4 µg/mL.

Question: What about the MIC (ATCC19977 M. abcessus) of the same molecule?
Answer: The MIC was 0.5 to 1 µg/mL (≈ 0.816 to 1.63 µM).

Question: What about the “Antibacterial activity AG001 E. coli WT” value (AG001 E. coli WT) of the same molecule?
Answer: Its value is 2.

Question: What about the MIC [14] of the same molecule?
Answer: Its MIC is 1 µg/mL.

Question: And the “Antibacterial activity AG031 P. aer. APH(3′)-II” value (AG031 P. aer. APH(3′)-II)?
Answer: The value was 4.

Question: And the “Activity A baum. AG227 APH(3′)-I armA” value [15]?
Answer: The value was 2-4.

Question: CN[C@H]1C(O)C2O[C@H](O[C@@H]3C(N)C[C@@H](N)[C@@H](O)[C@H]3OCCCN)C(N)C[C@@H]2O[C@@H]1O[C@H]1OC(CO)[C@@H](N)[C@H](O)C1O (some centres unmarked) [DC213] was tested. Which IC50 (bacterial ribosomes) did it give?
Answer: The IC50 was 0.21 µM.

Question: And the IC50 [1]?
Answer: The IC50 was 210 µM.

Question: And the “Activity K. pneum. AG269 AAC(3)-II AAC(6′)-I rmtB” value [2]?
Answer: The value was 4-8.

Question: What about the “Activity E. coli pH424 armA” value [3] of the same molecule?
Answer: The value was 4.

Question: And the “Antibacterial activity AG173 E. coli AAC(3)-IV” value (AG173 E. coli AAC(3)-IV)?
Answer: The value was 128.

Question: What about the MIC (isolates carrying apmA) of the same molecule?
Answer: The MIC was 64 to 128 µg/mL (≈ 107 to 215 µM).

Question: What about the IC50 [4] of the same molecule?
Answer: The IC50 was 327 µM.

Question: What about the MIC [5] of the same molecule?
Answer: The MIC was 8 µg/mL.

Question: And the “Activity E. coli AG153 AAC(3)-II APH(3′)-II rmtB” value [6]?
Answer: The value was 32.

Question: And the MIC [7]?
Answer: The MIC was 2 µg/mL.

Question: What about the “Antibacterial activity AG038 MRSA” value (AG038 MRSA) of the same molecule?
Answer: The value was 4.

Question: And the MIC [8]?
Answer: Its MIC is 4 to 8 µg/mL.

Question: And the MIC (WT clinical isolates)?
Answer: The MIC was 4 µg/mL (≈ 6.7 µM).

Question: What about the “Activity E. coli pH430 WT” value [9] of the same molecule?
Answer: The value was 4.

Question: What about the “Activity Enterob. AG302 AAC(3)-II AAC(6′)-I rmtC” value [10] of the same molecule?
Answer: Its value is 4-8.

Question: What about the MIC [11] of the same molecule?
Answer: Its MIC is 0.25 µg/mL.

Question: What about the MIC [12] of the same molecule?
Answer: Its MIC is 64 µg/mL (≈ 107 µM).

Question: What about the MIC [13] of the same molecule?
Answer: The MIC was 8 µg/mL.

Question: And the MIC (ATCC19977 M. abcessus)?
Answer: Its MIC is 1 µg/mL (≈ 1.68 µM).

Question: What about the “Antibacterial activity AG001 E. coli WT” value (AG001 E. coli WT) of the same molecule?
Answer: Its value is 16.

Question: And the MIC [14]?
Answer: The MIC was 4 to 8 µg/mL.

Question: And the “Antibacterial activity AG031 P. aer. APH(3′)-II” value (AG031 P. aer. APH(3′)-II)?
Answer: Its value is 16-32.

Question: And the “Activity A baum. AG227 APH(3′)-I armA” value [15]?
Answer: The value was 4-8.
